From patent publication US20250197424A1, “QUINOLINE COMPOUND AND USE THEREOF” (SHANGHAI PHARMACEUTICALS HOLDING CO., LTD., priority 2022, published 2025) come the findings set out here.

Where a name gives a salt, the structure may show the parent alone. Read-outs that look alike come from different tables or passages of the source.

In one test the target is GTP-KRAS-G12D:SOS1 (Homo sapiens (Human), UniProt P01116, G12D). As to the kind of experiment: GTP-KRAS-G12D:SOS1 binding inhibition. How it is done:
(§1) The IC50 of the compounds was fitted using a nonlinear regression equation with GraphPad Prism 8. The results are presented in Table 2: • Negative control: DMSO • Positive control: 100 μM BI-2852
(§2) The following nonlinear fitting formula was used to obtain the IC50 (half-maximal inhibitory concentration) of the compounds:
(§3) [formula] • X: logarithm of the compound concentration • Y: 665/615 Ratio

In a further test the target is GTP-KRAS-G12D:CRAF (Homo sapiens (Human), UniProt P01116, G12D). As to the kind of experiment: GTP-KRAS-G12D:CRAF binding inhibition. On the procedure: The IC50 of the compounds was fitted using a nonlinear regression equation with GraphPad Prism 8. The results are presented in Table 2: • Negative control: DMSO • Positive control: 100 μM BI-2852 The following nonlinear fitting formula was used to obtain the IC50 (half-maximal inhibitory concentration) of the compounds: [formula] • X: logarithm of the compound concentration • Y: 665/615 Ratio

A further test has as its target GTP-KRAS-WT:SOS1 (Homo sapiens (Human), UniProt P01116). As to the kind of experiment: KRAS_WT and SOS1 binding inhibition (KRAS-WT/SOS1 binding kit, 665/615 ratio). The following applies: GTP 10 μM.
From the text: To detect the inhibitory capability of small molecule compounds on the binding activity between KRAS_WT and SOS1 using a drug screening system based on the binding of KRAS_WT and SOS1 interaction.
a) BI-2852 was used as a positive control, with its stock solution as the first dilution point, followed by a 3-fold dilution, making a total of 10+0 dilutions. Similarly, the first dilution point of the test compounds was also their respective stock solutions, followed by a 3-fold dilution, making a total of 11+0 dilutions. Using Echo, 0.2 μL of the gradient-diluted compound solutions were transferred into a 384-well plate, with each compound tested in duplicate. The final DMSO concentration was 1%. The plate was centrifuged at 1000 rpm for 1 minute. The final concentrations of the positive controls were 100, 33.33, 11.11, 3.70, 1.23, 0.412, 0.137, 0.046, 0.015, 0.005, and 0 μM. The final concentrations of the test compounds were […], 0.01, and 0 μM.
b) KRAS_WT from the kit was prepared with GTP at a final concentration of 10 μM in the dilution buffer, and 5 μL was transferred into the 384-well reaction plate. The plate was centrifuged at 1000 rpm for 1 minute.
c) Subsequently, 5 μL of the SOS1 mixture was transferred into the 384-well reaction plate. The plate was centrifuged at 1000 rpm for 1 minute and incubated at 25° C. for 15 minutes.
d) 10 μL of the detection mixture was transferred into the 384-well reaction plate. The plate was centrifuged at 1000 rpm for 1 minute and incubated overnight at 4° C.
e) The […] and emission wavelength at 615 nm were read using an Envision multimode plate reader. The 665/615 ratio signal intensity was used to characterize the enzyme activity.
as §1, §2, §3

As usually defined, the IC50 is the concentration needed to halve the response being measured. As for `CC1CC2(CCc3c(nc(OC[C@@]45CCCN4C[C@H](F)C5)nc3N3C[C@H]4CC[C@@H](C3)N4)C2)c2cc(O)cc(Cl)c21` (single isomer, unassigned) [Compound 7aa, (1R or 1S, 3R or 3S)-4′-((1R,5S)-3,8-diazabicyclo[3.2.1]octan-3-yl)-4-chloro-2′-(((2R,7aS)-2-fluorotetrahydro-1H-pyrrolizin-7a(5H)-yl)methoxy)-3-methyl-2,3,5′,8′-tetrahydro-6′H-spiro[indene-1,7′-quinazolin]-6-ol dihydrochloride], the IC50 is 9.95 nM on GTP-KRAS-G12D:SOS1 (dihydrochloride), 16.4 nM at GTP-KRAS-G12D:CRAF (dihydrochloride) and 233 nM at GTP-KRAS-WT:SOS1 (dihydrochloride).

In the case of `Oc1cc(Cl)c2c(c1)C1(CC2)CCc2c(nc(OC[C@@]34CCCN3C[C@H](F)C4)nc2N2CC3CCC(C2)N3)C1` (single isomer, unassigned) [Compound 2a, (S or R)-4′-((1R,5S)-3,8-Diazabicyclo[3.2.1]octan-3-yl)-4-chloro-2′-((2R,7aS)-2-fluorotetrahydro-1H-pyrrolizin-7a(5H)-ylmethoxy)-2,3,5′,8′-tetrahydro-6′H-spiro[indene-1,7′-quinazolin]-6-ol dihydrochloride], the figures for the concentration for half-maximal inhibition (IC50) on GTP-KRAS-G12D:SOS1, on GTP-KRAS-G12D:CRAF and at GTP-KRAS-WT:SOS1 were 16.7 nM, 32.5 nM and 254 nM, respectively.

For `CC1CC2(CCc3c(nc(OC[C@@]45CCCN4C[C@H](F)C5)nc3N3CC4CCC(C3)N4)C2)c2cc(O)cc(Cl)c21` (single isomer, unassigned) [Compound 7a, (1R or 1S)-4′-((1R,5S)-3,8-Diazabicyclo[3.2.1]octan-3-yl)-4-chloro-2′-(((2R,7aS)-2-fluorotetrahydro-1H-pyrrolizin-7a(5H)-yl)methoxy)-3-methyl-2,3,5′,8′-tetrahydro-6′H-spiro[indene-1,7′-quinazolin]-6-ol dihydrochloride], the IC50 at GTP-KRAS-G12D:SOS1 is 21.5 nM; on GTP-KRAS-G12D:CRAF, 24 nM; at GTP-KRAS-WT:SOS1, 246 nM.

With `Oc1cc(Cl)c2c(c1)C1(CC2)CCc2c(nc(OC[C@@]34CCCN3C[C@H](F)C4)nc2N2CC3CCC(C2)N3)C1F` (single isomer, unassigned) [Compound 8d, (1R or 1S, 8'S or 8′R)-4′-((1R,5S)-3,8-diazabicyclo[3.2.1]octan-3-yl)-4-chloro-8′-fluoro-2′-(((2R,7aS)-2-fluorotetrahydro-1H-pyrrolizin-7a(5H)-yl)methoxy)-2,3,5′,8′-tetrahydro-6′H-spiro[indene-1,7′-quinazolin]-6-ol dihydrochloride], the half-maximal inhibitory concentration (IC50) at GTP-KRAS-G12D:SOS1 turned out to be 115 nM; at GTP-KRAS-G12D:CRAF, 491 nM; at GTP-KRAS-WT:SOS1 it was 4750 nM.

Consider `Oc1cc(Cl)c2c(c1)C1(CC2)CCc2c(N3CC4CCC(C3)N4)nc(OC[C@@]34CCCN3C[C@H](F)C4)nc2C1(F)F` (single isomer, unassigned) [Compound 9a, (S or R)-4′-((1R,5S)-3,8-Diazabicyclo[3.2.1]octan-3-yl)-4-chloro-8′,8′-difluoro-2′-(((2R,7aS)-2-fluorotetrahydro-1H-pyrrolizin-7a(5H)-yl)methoxy)-2,3,5′,8′-tetrahydro-6′H-spiro[indene-1,7′-quinazolin]-6-ol dihydrochloride], for which the values for the IC50 at GTP-KRAS-G12D:SOS1, on GTP-KRAS-G12D:CRAF and at GTP-KRAS-WT:SOS1 were 15.2 nM, 46.8 nM and 559 nM, respectively.

Turning to `F[C@H]1CN2CCC[C@@]2(COc2nc3c(c(N4CC5CCC(C4)N5)n2)CCC2(CCc4c(Cl)cccc42)C3)C1` (single isomer, unassigned) [Compound 1a, (S or R)-4′-((1R,5S)-3,8-Diazabicyclo[3.2.1]octan-3-yl)-4-chloro-2′-((2R,7aS)-2-fluorotetrahydro-1H-pyrrolizin-7a(5H)-ylmethoxy)-2,3,5′,8′-tetrahydro-6′H-spiro[indene-1,7′-quinazoline]dihydrochloride], the results for the IC50 on GTP-KRAS-G12D:SOS1, at GTP-KRAS-G12D:CRAF and at GTP-KRAS-WT:SOS1 were 45.6 nM, 333 nM and 4100 nM, respectively.

On to `Oc1cc(-c2cc3c4c(nc(OC[C@@]56CCCN5C[C@H](F)C6)nc4c2F)N2C[C@@H]4CC[C@@H](N4)[C@H]2CO3)c2ccccc2c1` [Compound 3, dihydrochloride], for which the figures for the IC50 on GTP-KRAS-G12D:SOS1, at GTP-KRAS-G12D:CRAF and on GTP-KRAS-WT:SOS1 were 11.9 nM, 12.3 nM and 79.6 nM, respectively.

With “(R or S)-4-((5aS,6R,9S)-1,3-difluoro-13-((2R,7aS)-2-fluorotetrahydro-1H-pyrrolizin-7a(5H)-ylmethoxy)-5a,6,7,8,9,10-hexahydro-5H-6,9-epiminoazepino[2′,1′:3,4][1,4]oxazepino[5,6,7-de]quinazolin-2-yl)-5-ethynyl-6-fluoronaphthalen-2-ol [4b′]”, the IC50 at GTP-KRAS-G12D:SOS1 was 18.3 nM; at GTP-KRAS-G12D:CRAF it was 8.22 nM; at GTP-KRAS-WT:SOS1, 5.6 nM.

In the case of `CC1CC2(CCc3c(nc(OC[C@@]45CCCN4C[C@H](F)C5)nc3N3C[C@H]4CC[C@@H](C3)N4)C2)c2cc(O)cc(Cl)c21` (single isomer, unassigned) [Compound 7ab, (1R or 1S, 3S or 3R)-4′-((1R,5S)-3,8-diazabicyclo[3.2.1]octan-3-yl)-4-chloro-2′-(((2R,7aS)-2-fluorotetrahydro-1H-pyrrolizin-7a(5H)-yl)methoxy)-3-methyl-2,3,5′,8′-tetrahydro-6′H-spiro[indene-1,7′-quinazolin]-6-ol dihydrochloride], the half-maximal inhibitory concentration (IC50) was 17.4 nM on GTP-KRAS-G12D:SOS1 (dihydrochloride), 84.8 nM at GTP-KRAS-G12D:CRAF (dihydrochloride) and 582 nM on GTP-KRAS-WT:SOS1 (dihydrochloride).

Take `Oc1cc(Cl)c2c(c1)C1(CC2)CCc2c(nc(OC[C@@]34CCCN3C[C@H](F)C4)nc2N2CC3CCC(C2)N3)C1F` (single isomer, unassigned) [Compound 8a, (1S or 1R,8'S or 8′R)-4′-((1R,5S)-3,8-Diazabicyclo[3.2.1]octan-3-yl)-4-chloro-8′-fluoro-2′-(((2R,7aS)-2-fluorotetrahydro-1H-pyrrolizin-7a(5H)-yl)methoxy)-2,3,5′,8′-tetrahydro-6′H-spiro[indene-1,7′-quinazolin]-6-ol dihydrochloride]: the IC50 on GTP-KRAS-G12D:SOS1 came out at 13.5 nM; on GTP-KRAS-G12D:CRAF it was 19.5 nM; on GTP-KRAS-WT:SOS1, 61.2 nM.
